In US20050043292A1, “Fluorinated lysine derivatives as dipeptidyl peptidase IV inhibitors” (Pfizer Inc, priority 2003, published 2005):
Counter-ions that a name gives are not always drawn.

Target: T1, DPP-IV (Homo sapiens, UniProt P27487)
T1 construct: purchased Enzyme Systems Products SPE-01
Experiment: In vitro Assay for Dipeptidyl Peptidase Inhibition
Type: biochemical
Settings: in vitro activity, Gly-Pro-4-methoxy-β-naphthylamide substrate, overnight at 37° C., read-out: IC50 (concentration of test compound required for 50% inhibition)
Method: 150 μL of an enzyme-substrate solution is pipetted into microtiter wells of a polystyrene 96-well plate, and maintained at 4° C. The enzyme-substrate solution comprises 50 μM Gly-Pro4-methoxy B naphthylamide HCl in 50 mM Tris assay buffer pH 7.3 containing 0.1M sodium chloride, 0.1% (v/v) Triton and 50 μU/mL DPP-IV (Enzyme Systems Products Cat#SPE-01, DPP-IV 5 mU/mL stock). 5μL/well of compounds of Formula I are added, bringing the final compound of Formula I concentrations to 3 μM-10 nM per well.
Controls. Enzyme is omitted from four (4) wells, as a reagent blank. 5 μL of 3 mM Diprotin A is added to four wells as a positive quality control, providing a final Diprotin A concentration of 100 μM. To measure total enzyme activity (i.e. a negative control), without the influence of any compounds of Formula I, 5 μL of distilled water is added to four wells.
The entire assay is incubated overnight (about 14-18 hours) at 37° C.

T1 sequence (P27487 whole entry, species assumed): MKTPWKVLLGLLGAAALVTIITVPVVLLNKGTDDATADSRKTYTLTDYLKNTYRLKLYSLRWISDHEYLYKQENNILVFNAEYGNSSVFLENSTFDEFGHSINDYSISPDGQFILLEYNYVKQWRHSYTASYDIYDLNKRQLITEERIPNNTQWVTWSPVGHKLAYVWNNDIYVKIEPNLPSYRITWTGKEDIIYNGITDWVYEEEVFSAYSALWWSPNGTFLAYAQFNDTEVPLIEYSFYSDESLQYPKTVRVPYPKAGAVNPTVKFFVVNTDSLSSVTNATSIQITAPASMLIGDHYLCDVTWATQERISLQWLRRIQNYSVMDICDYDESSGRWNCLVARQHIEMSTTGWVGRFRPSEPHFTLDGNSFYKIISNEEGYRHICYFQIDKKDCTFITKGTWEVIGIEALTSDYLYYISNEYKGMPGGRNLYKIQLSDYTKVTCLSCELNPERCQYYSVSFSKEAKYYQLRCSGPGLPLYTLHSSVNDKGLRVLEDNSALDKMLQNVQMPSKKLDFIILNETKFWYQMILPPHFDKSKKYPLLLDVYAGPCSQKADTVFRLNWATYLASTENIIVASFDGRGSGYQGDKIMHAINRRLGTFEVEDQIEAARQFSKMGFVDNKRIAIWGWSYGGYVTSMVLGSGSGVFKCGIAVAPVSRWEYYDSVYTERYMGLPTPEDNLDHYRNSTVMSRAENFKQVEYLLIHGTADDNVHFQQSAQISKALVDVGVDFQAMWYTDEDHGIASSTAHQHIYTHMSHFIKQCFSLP

IC50: ~1400 nM
SMILES: N[C@@H](CCCCNC(=O)COc1ccccc1)C(=O)N1CC(F)(F)C(F)(F)C1 [Example 6, (S)-N-[5-Amino-6-oxo-6-(3,3,4,4-tetrafluoro-pyrrolidin-1-yl)-hexyl]-2-phenoxy-acetamide Hydrochloride]
